According to US10111435B2, “Herbicidal compositions containing N-(1,3,4-oxadiazol-2-yl)-aryl carboxylic acid amides” (BAYER CROPSCIENCE AKTIENGESELLSCHAFT, priority 2013, dated 2018):

How the values were obtained:
Assay type in all cases: in vivo
Solanum nigrum (SOLNI) = assay: greenhouse post-emergence herbicidal efficacy against SOLNI
Procedure: (§1) All trials whose results are shown were conducted in a greenhouse by the methodology specified below. The effect of the inventive herbicidal compositions was examined on the following harmful plants 14 and 21 days after application:
(§2) Echinochloa crus-galli (ECHCG), Eleusine indica (ELEIN), Setaria viridis (SETVI), Amaranthus retroflexus (AMARE), Chenopodium album (CHEAL), Kochia scoparia (KCHSC), Solanum nigrum (SOLNI), Avena fatua (AVEFA), Bromus sterilis (BROST), Lolium multiflorum (LOLMU), Phalaris minor (PHAMI), Poa annua (POAAN), Galium aparine (GALAP), Matricaria inodora (MATIN) and Polygonum convolvulus (POLCO).
(§3) The harmful plant seeds were sown in pots (diameter 8 cm) with sandy loam soil and germinated under optimal conditions. The inventive herbicidal compositions or the active ingredients alone were applied post-emergence to the planted pots with a spray volume of 300 L/ha. The trial was conducted in a greenhouse under optimum growth conditions. The herbicidal effects were assessed visually by comparison of untreated and treated plants. The percentages mean: 0%=no effects, 100%=the plants die off completely). The percentages are used to calculate interactions between individual treatments and combination treatments according to S. R. Colby, Weeds 15, pages 20 to 22 (1967).
(§4) The abbreviations mean: • a.i.=active ingredient • E^C=expected value according to Colby (E^C=A+B−A×B/100) • Diff: =difference (%) of measured value from expected value (%) (measured value minus expected value)
(§5) Assessment: • measured value E is greater than E^C:->synergism (+ diff.) • measured value E equals E^C:->additive effect • measured value E is smaller than E^C:->antagonism(− diff.)

[1] = test system: Amaranthus retroflexus (AMARE); assay: greenhouse post-emergence herbicidal efficacy against AMARE
Procedure: as §1, §2, §3, §4, §5

[2] = test system: Echinochloa crus-galli (ECHCG); assay: greenhouse post-emergence herbicidal efficacy against ECHCG
Procedure: as §1, §2, §3, §4, §5

[3] = test system: Lolium multiflorum (LOLMU); assay: greenhouse post-emergence herbicidal efficacy against LOLMU
Method in brief: (§6)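 Read-out is visual percent herbicidal effect relative to untreated plants, taken 14 and 21 days after treatment. Pot-grown plants in sandy loam received mixtures or solo active ingredients post-emergence at a spray volume of 300 L/ha under optimum greenhouse conditions.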

Setaria viridis (SETVI) = assay: greenhouse post-emergence herbicidal efficacy against SETVI
Procedure: as §1, §2, §3, §4, §5

Avena fatua (AVEFA) = assay: greenhouse post-emergence herbicidal efficacy against AVEFA
Method in brief: as §6

DIGSA = assay: greenhouse post-emergence herbicidal efficacy against DIGSA
Procedure: as §1, §3, §4, §5

Galium aparine (GALAP) = assay: greenhouse post-emergence herbicidal efficacy against GALAP
Method in brief: as §6

Bromus sterilis (BROST) = assay: greenhouse post-emergence herbicidal efficacy against BROST
Method in brief: as §6

[4] = test system: Polygonum convolvulus (POLCO); assay: greenhouse post-emergence herbicidal efficacy against POLCO
Method in brief: as §6

[5] = test system: Matricaria inodora (MATIN); assay: greenhouse post-emergence herbicidal efficacy against MATIN
Method in brief: as §6

Phalaris minor (PHAMI) = assay: greenhouse post-emergence herbicidal efficacy against PHAMI
Method in brief: as §6

Eleusine indica (ELEIN) = assay: greenhouse post-emergence herbicidal efficacy against ELEIN
Procedure: as §1, §2, §3, §4, §5

Kochia scoparia (KCHSC) = assay: greenhouse post-emergence herbicidal efficacy against KCHSC
Procedure: as §1, §2, §3, §4, §5

[6] = test system: Chenopodium album (CHEAL); assay: greenhouse post-emergence herbicidal efficacy against CHEAL
Procedure: as §1, §2, §3, §4, §5

Poa annua (POAAN) = assay: greenhouse post-emergence herbicidal efficacy against POAAN
Method in brief: as §6

[7] = 21 days after application, 2 g of a.i./ha
[8] = 21 days after application, 0.5 g of a.i./ha
[9] = 14 days after application, 0.5 g of a.i./ha
[10] = 14 days after application, 2 g of a.i./ha
[11] = 14 days after application, 10 g of a.i./ha
[12] = 21 days after application, g of a.i./ha: A1-36 10, flurtamone 80
[13] = 14 days after application, 2.5 g of a.i./ha
[14] = 21 days after application, g of a.i./ha: A1-36 2.5, flurtamone 80
[15] = 21 days after application, g of a.i./ha: A1-36 2.5, flurtamone 320
[16] = 21 days after application, g of a.i./ha: A1-36 10, flurtamone 320
[17] = 14 days after application, 5 g of a.i./ha
[18] = 14 days after application, 20 g of a.i./ha
[19] = 21 days after application, 5 g of a.i./ha
[20] = 21 days after application, 20 g of a.i./ha
[21] = 14 days after application, 1 g of a.i./ha
[22] = 14 days after application, 4 g of a.i./ha
[23] = 21 days after application, 4 g of a.i./ha
[24] = 21 days after application, 1 g of a.i./ha
[25] = 14 days after application, g of a.i./ha: A1-60 2.5, isoproturon 400
[26] = 14 days after application, g of a.i./ha: A1-60 2.5, isoproturon 1600
[27] = 14 days after application, g of a.i./ha: A1-60 10, isoproturon 400
[28] = 14 days after application, g of a.i./ha: A1-60 10, isoproturon 1600
[29] = 21 days after application, g of a.i./ha: A1-60 10, isoproturon 400
[30] = 21 days after application, g of a.i./ha: A1-60 10, isoproturon 1600
[31] = 21 days after application, g of a.i./ha: A1-60 2.5, isoproturon 400

## Cc1nnc(NC(=O)c2ccc(C(F)(F)F)c(S(C)(=O)=O)c2Cl)o1 [A1-36]
Solanum nigrum (SOLNI); [7]
  Efficacy: 50%
[1]; [8]
  Efficacy: 20%
[1]; [7]
  Efficacy: 70%
[2]; [9]
  Efficacy: 10%
[2]; [10]
  Efficacy: 40%
[2]; [8]
  Efficacy: 0%
[2]; [7]
  Efficacy: 20%
[3]; [11]
  Efficacy: 3%
[3]; [12]
  Efficacy: 0%
Setaria viridis (SETVI); [7]
  Efficacy: 65%
Avena fatua (AVEFA); [13]
  Efficacy: 0%
Avena fatua (AVEFA); [11]
  Efficacy: 15%
Avena fatua (AVEFA); [14]
  Efficacy: 10%
Avena fatua (AVEFA); [15]
  Efficacy: 10%
Avena fatua (AVEFA); [12]
  Efficacy: 15%
Avena fatua (AVEFA); [16]
  Efficacy: 15%
DIGSA; [9]
  Efficacy: 10%
DIGSA; [8]
  Efficacy: 10%
Galium aparine (GALAP); [13]
  Efficacy: 5%
Galium aparine (GALAP); [11]
  Efficacy: 25%
Galium aparine (GALAP); [14]
  Efficacy: 0%
Galium aparine (GALAP); [12]
  Efficacy: 25%
Galium aparine (GALAP); [16]
  Efficacy: 25%
Bromus sterilis (BROST); [13]
  Efficacy: 0%
Bromus sterilis (BROST); [14]
  Efficacy: 5%
Bromus sterilis (BROST); [15]
  Efficacy: 5%
[4]; [13]
  Efficacy: 0%
[4]; [12]
  Efficacy: 3%
[4]; [16]
  Efficacy: 3%
[5]; [13]
  Efficacy: 15%
[5]; [11]
  Efficacy: 40%
[5]; [14]
  Efficacy: 0%
[5]; [15]
  Efficacy: 0%
[5]; [12]
  Efficacy: 15%
[5]; [16]
  Efficacy: 15%
Phalaris minor (PHAMI); [13]
  Efficacy: 0%
Phalaris minor (PHAMI); [11]
  Efficacy: 30%
Phalaris minor (PHAMI); [12]
  Efficacy: 20%
Eleusine indica (ELEIN); [10]
  Efficacy: 50%
Eleusine indica (ELEIN); [7]
  Efficacy: 30%

## CCOC(=O)[C@@H](C)Oc1ccc(Oc2nc3ccc(Cl)cc3o2)cc1 [fenoxaprop-P-ethyl]
Solanum nigrum (SOLNI); [17]
  Efficacy: 0%
Solanum nigrum (SOLNI); [18]
  Efficacy: 0%
Solanum nigrum (SOLNI); [19]
  Efficacy: 0%
Solanum nigrum (SOLNI); [20]
  Efficacy: 0%
[1]; [17]
  Efficacy: 0%
[1]; [18]
  Efficacy: 0%
Setaria viridis (SETVI); [20]
  Efficacy: 80%
Kochia scoparia (KCHSC); [17]
  Efficacy: 0%
Kochia scoparia (KCHSC); [18]
  Efficacy: 0%
Kochia scoparia (KCHSC); [20]
  Efficacy: 0%
DIGSA; [17]
  Efficacy: 30%
DIGSA; [19]
  Efficacy: 10%
[6]; [17]
  Efficacy: 0%
[6]; [18]
  Efficacy: 0%
[6]; [19]
  Efficacy: 0%
[6]; [20]
  Efficacy: 0%

## Cc1nnc(NC(=O)c2ccc(C(F)(F)F)c([S+](C)[O-])c2C)o1 (stereo not drawn) [A1-60]
Solanum nigrum (SOLNI); [21]
  Efficacy: 65%
Solanum nigrum (SOLNI); [22]
  Efficacy: 65%
Solanum nigrum (SOLNI); [23]
  Efficacy: 30%
Solanum nigrum (SOLNI); [24]
  Efficacy: 20%
[1]; [22]
  Efficacy: 70%
[1]; [23]
  Efficacy: 60%
[1]; [24]
  Efficacy: 20%
[2]; [21]
  Efficacy: 65%
[2]; [22]
  Efficacy: 90%
[2]; [23]
  Efficacy: 75%
[2]; [24]
  Efficacy: 40%
[3]; [25]
  Efficacy: 0%
[3]; [26]
  Efficacy: 0%
[3]; [27]
  Efficacy: 0%
[3]; [28]
  Efficacy: 0%
[3]; [29]
  Efficacy: 3%
[3]; [30]
  Efficacy: 3%
Setaria viridis (SETVI); [21]
  Efficacy: 70%
Setaria viridis (SETVI); [22]
  Efficacy: 85%
Setaria viridis (SETVI); [23]
  Efficacy: 70%
Setaria viridis (SETVI); [24]
  Efficacy: 50%
Avena fatua (AVEFA); [25]
  Efficacy: 0%
Avena fatua (AVEFA); [27]
  Efficacy: 0%
Avena fatua (AVEFA); [28]
  Efficacy: 0%
Avena fatua (AVEFA); [31]
  Efficacy: 0%
Avena fatua (AVEFA); [29]
  Efficacy: 5%
Avena fatua (AVEFA); [30]
  Efficacy: 5%
Poa annua (POAAN); [26]
  Efficacy: 0%
Poa annua (POAAN); [27]
  Efficacy: 10%
Poa annua (POAAN); [28]
  Efficacy: 10%
Poa annua (POAAN); [29]
  Efficacy: 20%
DIGSA; [22]
  Efficacy: 93%
DIGSA; [23]
  Efficacy: 70%
Galium aparine (GALAP); [25]
  Efficacy: 25%
Galium aparine (GALAP); [26]
  Efficacy: 25%
Galium aparine (GALAP); [27]
  Efficacy: 30%
Galium aparine (GALAP); [28]
  Efficacy: 30%
Galium aparine (GALAP); [31]
  Efficacy: 0%
Galium aparine (GALAP); 21 days after application, g of a.i./ha: A1-60 2.5, isoproturon 1600
  Efficacy: 0%
Galium aparine (GALAP); [29]
  Efficacy: 0%
Galium aparine (GALAP); [30]
  Efficacy: 0%
Bromus sterilis (BROST); [25]
  Efficacy: 0%
Bromus sterilis (BROST); [26]
  Efficacy: 0%
Bromus sterilis (BROST); [27]
  Efficacy: 15%
Bromus sterilis (BROST); [28]
  Efficacy: 15%
Bromus sterilis (BROST); [29]
  Efficacy: 5%
Bromus sterilis (BROST); [30]
  Efficacy: 5%
[5]; [31]
  Efficacy: 0%
[5]; [29]
  Efficacy: 40%
Phalaris minor (PHAMI); [25]
  Efficacy: 10%
Phalaris minor (PHAMI); [27]
  Efficacy: 25%
Phalaris minor (PHAMI); [28]
  Efficacy: 25%
Phalaris minor (PHAMI); [31]
  Efficacy: 0%
Phalaris minor (PHAMI); [29]
  Efficacy: 20%
Eleusine indica (ELEIN); [21]
  Efficacy: 70%
Eleusine indica (ELEIN); [22]
  Efficacy: 90%
Eleusine indica (ELEIN); [23]
  Efficacy: 75%
Eleusine indica (ELEIN); [24]
  Efficacy: 40%
